# Laboratory results: patent publication US11957759B1, “Rapidly accelerated fibrosarcoma (RAF) degrading compounds and associated methods of use” (Arvinas Operations, Inc., priority 2022, dated 2024)
# What was measured:
# B-RAF V600E = target: T1, B-RAF V600E (Homo sapiens, UniProt P15056, V600E); test: Target protein degradation, assay C: T-Rex 293 cells, HA-BRAF_V600E, 384 well format; assay type: cell-based; details: T-Rex 293 HA-BRAF_V600E cells, 24 hours, Examples 83-269; for DC50: Assay C; for Dmax: T-REx-293, Assay C
# T1 construct: expressed in transfected cells; host or cells: T-Rex 293 cells (Invitrogen #R71007)
# Procedure: C. T-Rex 293 Cells (384 Well Format)
# (§1) T-Rex 293 cells were purchased from Invitrogen (#R71007), and stably transfected with a pcDNA4/TO_HA-BRAF_V600E construct, using 400 ug Zeocin for selection. V600E cells are plated in DMEM media (Gibco #11965118) containing 10% FBS (Gibco #16000044), 1% penicillin-streptomycin (ThermoFisher #15140122), 1:250 zeocin (Invitrogen #R-25005), and 1 ng/mL doxycycline (Selleckchem #4163) at a density of 7,500 cells/well in 45 μl on PDL coated, black clear bottom 384 well plates (Corning #354663) and incubated at 37° C.+5% CO2 for 24 hours. The following day, PROTAC compounds in a 1:3 11 point dilution are diluted into DMEM media using an Agilent Bravo. 5 ul of PROTACs suspended in DMEM media are added to the cells, with a final assay concentration ranging from 300 nM to 5 pM in 0.5% DMSO. Plates are incubated at 37° C.+5% CO2 for 24 hours. At the end of treatment, media is aspirated, and cells are fixed in 50 uL 4% PFA (EMS #15710) in PBS++(PBS, 1 mM CaCl, 1 mM MgCl) at RT for 15 minutes. Cells are washed 2× with 60 uL PBS++ and permeabilized in 50 uL 1% Triton X-100 (Sigma #93443) in PBS++ for 5 minutes at RT. Cells are washed in PBS++ prior to blocking with 50 uL Licor blocking buffer (Licor #927-60001) for 1 hour at RT. HA-tagged BRAF was stained using 50 uL HA antibody (CST #3724) at 1:1000 in Licor blocking buffer for two hours at RT. Primary is aspirated before adding 50 ul of secondary antibody solution containing 1:1000 Hoechst (ThermoFisher #62249), 1:1000 HCS CellMask Deep Red Stain (ThermoFisher #H32721), and 1:5000 goat anti-rabbit IgG Alexa-Fluor 488 (ThermoFisher #A32731) in PBS++ for 1 hr at RT. Plates are washed 4× with 60 uL PBS++, then sealed with Adhesive Black Light Absorbing Film (VWR #89087-692) and imaged on the ThermoFisher CX7 PRO high content instrument. BRAF intensity is quantified in HCS Studio software (ThermoFisher), using a custom script, exported, analyzed using KNIME, and curve curation is performed in an ELN (Scilligence). Cell toxicity is measured via comparing number of nuclei in PROTAC treated wells to DMSO controls.
# (§2) The concentration of an exemplary compound that leads to half maximal degradation (DC50) as well as the maximum degradation observed (Dmax, conventionally expressed as a percentage of control) is shown below in Table 2.
# B-RAF G466V = target: T2, B-RAF G466V (Homo sapiens, UniProt P15056, G466V); test: Target protein degradation, assay D: T-Rex 293 cells, HA-BRAF_G466V, 384 well format; assay type: cell-based; details: T-Rex 293 HA-BRAF_G466V cells, 24 hours, Examples 83-269; for DC50: Assay D; for Dmax: T-REx-293, Assay D
# T2 construct: expressed in transfected cells; host or cells: T-Rex 293 cells (Invitrogen #R71007)
# Procedure: D. T-Rex 293 Cells (384 Well Format)
# as §1, with “pcDNA4/TO_HA-BRAF_G466V” for “pcDNA4/TO_HA-BRAF_V600E”, “G466V” for “V600E”
# as §2
# T1 sequence (P15056 whole entry V600E): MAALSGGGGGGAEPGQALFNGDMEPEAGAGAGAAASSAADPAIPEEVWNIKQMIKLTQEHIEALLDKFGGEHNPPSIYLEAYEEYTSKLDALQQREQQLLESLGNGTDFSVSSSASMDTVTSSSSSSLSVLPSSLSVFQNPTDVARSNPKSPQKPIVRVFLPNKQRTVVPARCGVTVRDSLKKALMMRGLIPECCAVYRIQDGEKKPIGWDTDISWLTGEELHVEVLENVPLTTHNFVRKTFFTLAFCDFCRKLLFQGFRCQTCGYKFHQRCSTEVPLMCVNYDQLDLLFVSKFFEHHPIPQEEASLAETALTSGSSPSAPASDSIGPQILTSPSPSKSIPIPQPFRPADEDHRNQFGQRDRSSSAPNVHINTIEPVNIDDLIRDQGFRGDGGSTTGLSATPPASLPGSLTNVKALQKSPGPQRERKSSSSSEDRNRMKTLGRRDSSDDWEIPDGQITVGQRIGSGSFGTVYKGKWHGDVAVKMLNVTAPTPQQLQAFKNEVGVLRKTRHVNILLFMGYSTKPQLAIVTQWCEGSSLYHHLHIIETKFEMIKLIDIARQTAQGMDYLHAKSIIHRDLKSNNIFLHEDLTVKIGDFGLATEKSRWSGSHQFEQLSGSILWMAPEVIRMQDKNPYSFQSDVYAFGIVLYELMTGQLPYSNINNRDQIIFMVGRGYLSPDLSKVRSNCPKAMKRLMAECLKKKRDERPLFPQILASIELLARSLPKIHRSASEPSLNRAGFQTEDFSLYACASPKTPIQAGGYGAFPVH
# T2 sequence (P15056 whole entry G466V): as the sequence (P15056 whole entry V600E) above, with G466V, E600V counted along it
SMILES,DC50 (B-RAF V600E) [nM],Dmax (B-RAF V600E) [%],DC50 (B-RAF G466V) [nM],Dmax (B-RAF G466V) [%]
"Cc1c(N2CCC(CN3CCN(c4ccc(-n5cnc6ccc(Oc7c(F)ccc(NS(=O)(=O)N8CC[C@@H](F)C8)c7C#N)cc6c5=O)cc4)CC3)CC2)ccc2c1CN(C1CCC(=O)NC1=O)C2=O (single isomer, unassigned) [Example 113, (3R)-N-(2-cyano-3-{[3-(4-{4-[(1-{2-[(3R*)-2,6-dioxopiperidin-3-yl]-4-methyl-1-oxo-2,3-dihydro-1H-isoindol-5-yl}piperidin-4-yl)methyl]piperazin-1-yl}phenyl)-4-oxo-3,4-dihydroquinazolin-6-yl]oxy}-4-fluorophenyl)-3-fluoropyrrolidine-1-sulfonamide]",50 to 500,,1 to 10,
"N#Cc1c(NS(=O)(=O)N2CC[C@@H](F)C2)ccc(F)c1Oc1ccc2ncn(-c3ccc(N4CCN(CCN5CCN(c6ccc(C7CCC(=O)NC7=O)cc6F)CC5)CC4)cc3)c(=O)c2c1 (stereo partly drawn) [Example 244, (3R)-N-{2-cyano-3-[(3-(4-[4-(2-{4-[4-(2,6-dioxopiperidin-3-yl)-2-fluorophenyl]piperazin-1-yl}ethyl)piperazin-1-yl]phenyl}-4-oxo-3,4-dihydroquinazolin-6-yl)oxy]-4-fluorophenyl}-3-fluoropyrrolidine-1-sulfonamide]",50 to 500,35 to 70,1 to 10,≤ 35
"N#Cc1c(NS(=O)(=O)N2CC[C@@H](F)C2)ccc(F)c1Oc1ccc2ncn(-c3ccc(C4CCN(CC5CN(c6ccc7c(c6Cl)CN([C@H]6CCC(=O)NC6=O)C7=O)C5)CC4)cc3)c(=O)c2c1 [Example 258, (3R)-N-(3-{[3-(4-{1-[(1-{4-chloro-2-[(3S)-2,6-dioxopiperidin-3-yl]-1-oxo-2,3-dihydro-1H-isoindol-5-yl}azetidin-3-yl)methyl]piperidin-4-yl}phenyl)-4-oxo-3,4-dihydroquinazolin-6-yl]oxy}-2-cyano-4-fluorophenyl)-3-fluoropyrrolidine-1-sulfonamide]",50 to 500,35 to 70,1 to 10,35 to 70
"N#Cc1c(NS(=O)(=O)N2CC[C@@H](F)C2)ccc(F)c1Oc1ccc2ncn(-c3cnc(N4CCN(c5ccc6c(c5)CN(C5CCC(=O)NC5=O)C6=O)CC4)nc3)c(=O)c2c1 (stereo partly drawn) [Example 127, (3R)-N-(2-cyano-3-{[3-(2-{4-[2-(2,6-dioxopiperidin-3-yl)-1-oxo-2,3-dihydro-1H-isoindol-5-yl]piperazin-1-yl}pyrimidin-5-yl)-4-oxo-3,4-dihydroquinazolin-6-yl]oxy}-4-fluorophenyl)-3-fluoropyrrolidine-1-sulfonamide]",50 to 500,35 to 70,> 30,
"N#Cc1c(NS(=O)(=O)N2CCC(F)C2)ccc(F)c1Oc1ccc2ncn(-c3ccc(N4CCN(CC5CN(c6ccc7c(c6)CN(C6CCC(=O)NC6=O)C7=O)C5)CC4)cc3)c(=O)c2c1 (stereo not drawn) [Example 194, N-{2-cyano-3-[(3-{4-[4-({1-[2-(2,6-dioxopiperidin-3-yl)-1-oxo-2,3-dihydro-1H-isoindol-5-yl]azetidin-3-yl}methyl)piperazin-1-yl]phenyl}-4-oxo-3,4-dihydroquinazolin-6-yl)oxy]-4-fluorophenyl}-3-fluoropyrrolidine-1-sulfonamide]",50 to 500,≤ 35,1 to 10,35 to 70
"N#Cc1c(NS(=O)(=O)N2CC[C@@H](F)C2)ccc(F)c1Oc1ccc2ncn(-c3ccc(N4CCC5(CCN(CC6CCN(c7ccc8c(c7)CN([C@H]7CCC(=O)NC7=O)C8=O)CC6)CC5)CC4)cc3)c(=O)c2c1 [Example 200, (3R)-N-(2-cyano-3-{[3-(4-{9-[(1-{2-[(3S)-2,6-dioxopiperidin-3-yl]-1-oxo-2,3-dihydro-1H-isoindol-5-yl}piperidin-4-yl)methyl]-3,9-diazaspiro[5.5]undecan-3-yl}phenyl)-4-oxo-3,4-dihydroquinazolin-6-yl]oxy}-4-fluorophenyl)-3-fluoropyrrolidine-1-sulfonamide]",50 to 500,35 to 70,1 to 10,35 to 70

# The next lines start with the values.
DC50 (B-RAF V600E) [nM],Dmax (B-RAF V600E) [%],DC50 (B-RAF G466V) [nM],Dmax (B-RAF G466V) [%],SMILES
50 to 500,35 to 70,1 to 10,35 to 70,"Cc1c(N2CCC(CN3CCN(c4ccc(-n5cnc6ccc(Oc7c(F)ccc(NS(=O)(=O)N8CC[C@@H](F)C8)c7C#N)cc6c5=O)cc4)CC3)CC2)ccc2c1CN(C1CCC(=O)NC1=O)C2=O (single isomer, unassigned) [Example 111, (3R)-N-(2-cyano-3-{[3-(4-{4-[(1-{2-[(3R*)-2,6-dioxopiperidin-3-yl]-4-methyl-1-oxo-2,3-dihydro-1H-isoindol-5-yl}piperidin-4-yl)methyl]piperazin-1-yl}phenyl)-4-oxo-3,4-dihydroquinazolin-6-yl]oxy}-4-fluorophenyl)-3-fluoropyrrolidine-1-sulfonamide]"
5 to 50,35 to 70,1 to 10,35 to 70,"N#Cc1c(NS(=O)(=O)N2CC[C@@H](F)C2)ccc(F)c1Oc1ccc2ncn(-c3ccc(N4CCN(CC5CCN(c6ccc7c(c6)CN([C@@H]6CCC(=O)NC6=O)C7=O)CC5)CC4)cc3)c(=O)c2c1 [Example 103, (3R)-N-(2-cyano-3-{[3-(4-{4-[(1-{2-[(3R)-2,6-dioxopiperidin-3-yl]-1-oxo-2,3-dihydro-1H-isoindol-5-yl}piperidin-4-yl)methyl]piperazin-1-yl}phenyl)-4-oxo-3,4-dihydroquinazolin-6-yl]oxy}-4-fluorophenyl)-3-fluoropyrrolidine-1-sulfonamide]"
5 to 50,≥ 70,1 to 10,≥ 70,"N#Cc1c(NS(=O)(=O)N2CC[C@@H](F)C2)ccc(F)c1Oc1ccc2ncn(-c3cccc(C4CCN(CC5CCN(c6ccc7c(c6)CN([C@H]6CCC(=O)NC6=O)C7=O)CC5)CC4)c3)c(=O)c2c1 [Example 240, (3R)-N-(2-cyano-3-{[3-(3-{1-[(1-{2-[(3S)-2,6-dioxopiperidin-3-yl]-1-oxo-2,3-dihydro-1H-isoindol-5-yl}piperidin-4-yl)methyl]piperidin-4-yl}phenyl)-4-oxo-3,4-dihydroquinazolin-6-yl]oxy}-4-fluorophenyl)-3-fluoropyrrolidine-1-sulfonamide]"
